The text below walks through data of patent US20220281930A1, “COMPOSITIONS AND METHODS FOR THE TREATMENT OF PATHOLOGICAL PAIN AND ITCH” (DUKE UNIVERSITY, priority 2019, published 2022).

Assay [1] concerns ß-cat. Description: ß-cat nuclear translocation in primary neurons, immunolabeling. Format: cell-based, rat. The settings on record: KP treatment. As to the method: Immunocytochemistry labeling of cultured neuronal cells was carried out as previously described (Liedtke et al., 2013, Small 9, 1066-1075; Yeo et al., 2009, J Neurosci 29:14652-14662; Yeo et al., 2013, Proc Natl Acad Sci USA 110:4315-4320). Primary antibodies are shown in the antibody table. Anti-KCC2 primary antibodies were validated with developing rat primary cortical neurons; we observed an increase in staining pattern that tightly matched increase of KCC2 mRNA expression (Liedtke et al., 2013, Small 9:1066-1075; Yeo et al., 2009, J Neurosci 29:14652-14662.; Yeo et al., 2013, Proc Natl Acad Sci USA 110:4315-4320). Secondary antibodies used were goat anti-mouse IgG Alexa Fluor 594 (Invitrogen A11032) and goat anti-rabbit IgG Alexa Fluor 594 (Invitrogen A11012). DAPI stain was obtained from Sigma Aldrich (D9542). Stained cells were observed using an inverted confocal microscope (Zeiss LSM780).
We obtained stacks of images recorded at 0.35 μm intervals through separate channels with a 63× oil-immersion lens (NA, 1.40, refraction index, 1.45). Zen software (Zeiss) was used to construct composite images from each optical series by combining the images recorded through the different channels, and the same software was used to obtain Z projection images (image resolution: 1024×1024 pixels; pixel size: 0.11 μm). ImageJ was used for morphometry. […]

For assay [2], the system named is beta-cat binding to KCC2 promoter. Nature of the assay: ChIP with anti-beta-cat antibody at KCC2 promoter. Format: cell-based, rat. The note with it: KP-treated vs vehicle. As to the method: ChIP assay was carried out as described previously (Yeo et al., 2009, J Neurosci 29:14652-14662; Yeo et al., 2013, Proc Natl Acad Sci USA 110:4315-4320). Primary cortical neurons (0.7×10^6) were used for each ChIP experiment. Cells were crosslinked with 1% formaldehyde for 30 min, washed twice with cold PBS, resuspended in lysis buffer [1% SDS, 10 mm EDTA, and 50 mm Tris-HCl, pH 8.0, with protease inhibitor cocktail (Roche)], and sonicated for 15 s pulses. The lysates were clarified by centrifugation at 10,000 rpm for 10 min at 4° C. in a microcentrifuge. One-tenth of the total lysate was used as input control of genomic DNA. Supernatants were collected and diluted in buffer (1% Triton X-100, 2 mm EDTA, 150 mm NaCl, 20 mm Tris-HCl, pH 8.0, and protease inhibitor cocktail) followed by immunoclearing with 1 mg of salmon sperm DNA, 10 ml of rabbit IgG, and 20 ml of protein A/G-Sepharose (Santa Cruz Biotechnology) for 1 h at 4° C. Immunoprecipitation was performed overnight at 4° C. with 2 mg of each specific antibody. Precipitates were washed sequentially for 10 min each in TSE1 buffer (0.1% SDS, 1% Triton X-100, 2 mm EDTA, 150 mm NaCl, and 20 mm Tris-HCl, pH 8.0), TSE2 (TSE1 with 500 mm NaCl), and TSE3 (0.25 m LiCl, 1% NP-40, 1% deoxycholate, 1 mm EDTA, and 10 mm Tris-HCl, pH 8.0). […]

As for `O=C1Cc2c([nH]c3ccc(Br)cc23)-c2ccccc2N1` [kenpaullone, 9-bromo-7,12-dihydro-indolo [3,2-d] [1]benzazepin-6(5H)-one], in assay [1], the “catenin translocation into the nucleus (FIG. 9)” value is “significantly increases”. Also, the “binding of beta-cat to TCF site” value in assay [2] is on record as “significantly increases binding”.
